Marks after values point to notes of the source that are not given here. [PEt] = P-ethoxy (ethyl phosphotriester) internucleoside linkage
Experiment: Adverse events in study 2003-0578 (NCI CTCAE grading)
[1] = MDS at enrollment (n = 4), all treatment groups

BP1001: liposome-incorporated P-ethoxy antisense oligodeoxynucleotide (5′-ATATTTGGCGATGGCTTC-3′, SEQ ID NO: 1) specific to grb2 mRNA, in neutral DOPC liposomes (DNA, all [PEt], methylation of C not given here; incorporated in neutral DOPC liposomes)
2: Investigations ≥Grade 3, total patients (all patients (N = 39)) | Acidosis ≥Grade 3, number of patients (monotherapy 5 mg/m^2 (n = 13)) | Febrile neutropenia ≥Grade 3, number of patients (monotherapy 5 mg/m^2 (n = 13)) | Hypoglycemia ≥Grade 3, number of patients (monotherapy 5 mg/m^2 (n = 13)) | Hypotension ≥Grade 3, number of patients (monotherapy 5 mg/m^2 (n = 13)) | Multi-organ failure ≥Grade 3, number of patients (monotherapy 5 mg/m^2 (n = 13)) | Respiratory failure ≥Grade 3, number of patients (monotherapy 5 mg/m^2 (n = 13)) | Respiratory, thoracic, and mediastinal disorders ≥Grade 3, number of patients (monotherapy 5 mg/m^2 (n = 13)) | Vascular disorders ≥Grade 3, number of patients (monotherapy 5 mg/m^2 (n = 13)) | Blood and lymphatic system disorders ≥Grade 3, number of patients (monotherapy 10 mg/m^2 (n = 6))
5: Blood and lymphatic system disorders ≥Grade 3, number of patients (monotherapy 5 mg/m^2 (n = 13))
19: Metabolism and nutritional disorders ≥Grade 3, total events (all patients (N = 39))
10: AML progression, number of patients (monotherapy 5 mg/m^2 (n = 13)) | Patients with AEs ≥Grade 3, number of patients (monotherapy 5 mg/m^2 (n = 13))
28: Patients with AEs ≥Grade 3, total patients (all patients (N = 39))
polyps) (2/2): Neoplasms benign, malignant, and unspecified (incl. cysts and polyps) ≥Grade 3, total events (all patients (N = 39)) | Neoplasms benign, malignant, and unspecified (incl. cysts and polyps) ≥Grade 3, total patients (all patients (N = 39))
0: Hyponatremia ≥Grade 3, number of patients [1] | Hypotension ≥Grade 3, number of patients [1] | Hypovolemia ≥Grade 3, number of patients [1] | Hypoxia ≥Grade 3, number of patients [1] | Investigations ≥Grade 3, number of patients [1] | Leukocytosis ≥Grade 3, number of patients [1] | Metabolism and nutritional disorders ≥Grade 3, number of patients [1] | Multi-organ failure ≥Grade 3, number of patients [1] | Musculoskeletal and connective tissue disorders ≥Grade 3, number of patients [1] | Neoplasms benign, malignant, and unspecified (incl. cysts and polyps) ≥Grade 3, number of patients [1] | Penile Pain ≥Grade 3, number of patients [1] | Platelet count decreased ≥Grade 3, number of patients [1] | Pleural Effusions ≥Grade 3, number of patients [1] | Pneumonia ≥Grade 3, number of patients [1] | Psychiatric disorders ≥Grade 3, number of patients [1] | Renal and urinary disorders ≥Grade 3, number of patients [1] | Reproductive system and breast disorders ≥Grade 3, number of patients [1] | Respiratory distress ≥Grade 3, number of patients [1] | Respiratory failure ≥Grade 3, number of patients [1] | Respiratory, thoracic, and mediastinal disorders ≥Grade 3, number of patients [1] | Tumor lysis syndrome ≥Grade 3, number of patients [1] | Vascular disorders ≥Grade 3, number of patients [1] | Abdominal Pain ≥Grade 3, number of patients (monotherapy 5 mg/m^2 (n = 13)) | Back Pain ≥Grade 3, number of patients (monotherapy 5 mg/m^2 (n = 13)) | Cataract ≥Grade 3, number of patients (monotherapy 5 mg/m^2 (n = 13)) | Dyspnea ≥Grade 3, number of patients (monotherapy 5 mg/m^2 (n = 13)) | Extremity Lower Edema ≥Grade 3, number of patients (monotherapy 5 mg/m^2 (n = 13)) | Eye disorders ≥Grade 3, number of patients (monotherapy 5 mg/m^2 (n = 13)) | Gastrointestinal disorders ≥Grade 3, number of patients (monotherapy 5 mg/m^2 (n = 13)) | Hallucinations ≥Grade 3, number of patients (monotherapy 5 mg/m^2 (n = 13)) | Hypovolemia ≥Grade 3, number of patients (monotherapy 5 mg/m^2 (n = 13)) | Musculoskeletal and connective tissue disorders ≥Grade 3, number of patients (monotherapy 5 mg/m^2 (n = 13)) | Neoplasms benign, malignant, and unspecified (incl. cysts and polyps) ≥Grade 3, number of patients (monotherapy 5 mg/m^2 (n = 13)) | Penile Pain ≥Grade 3, number of patients (monotherapy 5 mg/m^2 (n = 13)) | Pneumonia ≥Grade 3, number of patients (monotherapy 5 mg/m^2 (n = 13)) | Psychiatric disorders ≥Grade 3, number of patients (monotherapy 5 mg/m^2 (n = 13)) | Reproductive system and breast disorders ≥Grade 3, number of patients (monotherapy 5 mg/m^2 (n = 13)) | Abdominal Pain ≥Grade 3, number of patients (monotherapy 10 mg/m^2 (n = 6)) | Acute kidney injury ≥Grade 3, number of patients (monotherapy 10 mg/m^2 (n = 6)) | Asthenia ≥Grade 3, number of patients (monotherapy 10 mg/m^2 (n = 6)) | Back Pain ≥Grade 3, number of patients (monotherapy 10 mg/m^2 (n = 6)) | Cardiac disorders ≥Grade 3, number of patients (monotherapy 10 mg/m^2 (n = 6)) | Cataract ≥Grade 3, number of patients (monotherapy 10 mg/m^2 (n = 6)) | Dyspnea ≥Grade 3, number of patients (monotherapy 10 mg/m^2 (n = 6)) | Extremity Lower Edema ≥Grade 3, number of patients (monotherapy 10 mg/m^2 (n = 6)) | Eye disorders ≥Grade 3, number of patients (monotherapy 10 mg/m^2 (n = 6)) | Gastrointestinal disorders ≥Grade 3, number of patients (monotherapy 10 mg/m^2 (n = 6)) | Hallucinations ≥Grade 3, number of patients (monotherapy 10 mg/m^2 (n = 6)) | Heart failure ≥Grade 3, number of patients (monotherapy 10 mg/m^2 (n = 6)) | Hypocalcemia ≥Grade 3, number of patients (monotherapy 10 mg/m^2 (n = 6)) | Hypoglycemia ≥Grade 3, number of patients (monotherapy 10 mg/m^2 (n = 6)) | Hyponatremia ≥Grade 3, number of patients (monotherapy 10 mg/m^2 (n = 6)) | Hypotension ≥Grade 3, number of patients (monotherapy 10 mg/m^2 (n = 6))
disorders (4/4): Renal and urinary disorders ≥Grade 3, total events (all patients (N = 39)) | Renal and urinary disorders ≥Grade 3, total patients (all patients (N = 39))
91: Patients with AEs ≥Grade 3, total events (all patients (N = 39))
12: Blood and lymphatic system disorders ≥Grade 3, total events (all patients (N = 39)) | Metabolism and nutritional disorders ≥Grade 3, total patients (all patients (N = 39)) | Metabolism and nutritional disorders ≥Grade 3, number of patients (monotherapy 5 mg/m^2 (n = 13))
disorders (2/2): Hepatobiliary disorders ≥Grade 3, total events (all patients (N = 39)) | Hepatobiliary disorders ≥Grade 3, total patients (all patients (N = 39)) | Vascular disorders ≥Grade 3, total events (all patients (N = 39)) | Vascular disorders ≥Grade 3, total patients (all patients (N = 39))
(5/5): General disorders and administration site conditions ≥Grade 3, total events (all patients (N = 39)) | General disorders and administration site conditions ≥Grade 3, total patients (all patients (N = 39))
3: Investigations ≥Grade 3, total events (all patients (N = 39)) | Acute kidney injury ≥Grade 3, number of patients (monotherapy 5 mg/m^2 (n = 13)) | Cardiac disorders ≥Grade 3, number of patients (monotherapy 5 mg/m^2 (n = 13)) | General disorders and administration site conditions ≥Grade 3, number of patients (monotherapy 5 mg/m^2 (n = 13)) | Heart failure ≥Grade 3, number of patients (monotherapy 5 mg/m^2 (n = 13)) | Leukocytosis ≥Grade 3, number of patients (monotherapy 5 mg/m^2 (n = 13)) | Renal and urinary disorders ≥Grade 3, number of patients (monotherapy 5 mg/m^2 (n = 13)) | Tumor lysis syndrome ≥Grade 3, number of patients (monotherapy 5 mg/m^2 (n = 13))
1: Patients with AEs ≥Grade 3, number of patients [1] | Asthenia ≥Grade 3, number of patients (monotherapy 5 mg/m^2 (n = 13)) | Hepatic failure ≥Grade 3, number of patients (monotherapy 5 mg/m^2 (n = 13)) | Hepatobiliary disorders ≥Grade 3, number of patients (monotherapy 5 mg/m^2 (n = 13)) | Hypocalcemia ≥Grade 3, number of patients (monotherapy 5 mg/m^2 (n = 13)) | Hypokalemia ≥Grade 3, number of patients (monotherapy 5 mg/m^2 (n = 13)) | Hyponatremia ≥Grade 3, number of patients (monotherapy 5 mg/m^2 (n = 13)) | Hypoxia ≥Grade 3, number of patients (monotherapy 5 mg/m^2 (n = 13)) | Investigations ≥Grade 3, number of patients (monotherapy 5 mg/m^2 (n = 13)) | Platelet count decreased ≥Grade 3, number of patients (monotherapy 5 mg/m^2 (n = 13)) | Respiratory distress ≥Grade 3, number of patients (monotherapy 5 mg/m^2 (n = 13)) | Acidosis ≥Grade 3, number of patients (monotherapy 10 mg/m^2 (n = 6)) | General disorders and administration site conditions ≥Grade 3, number of patients (monotherapy 10 mg/m^2 (n = 6)) | Hepatic failure ≥Grade 3, number of patients (monotherapy 10 mg/m^2 (n = 6)) | Hepatobiliary disorders ≥Grade 3, number of patients (monotherapy 10 mg/m^2 (n = 6)) | Hypokalemia ≥Grade 3, number of patients (monotherapy 10 mg/m^2 (n = 6))
11: Blood and lymphatic system disorders ≥Grade 3, total patients (all patients (N = 39))
disorders (3/3): Cardiac disorders ≥Grade 3, total events (all patients (N = 39)) | Cardiac disorders ≥Grade 3, total patients (all patients (N = 39))
4: AML progression, number of patients (monotherapy 10 mg/m^2 (n = 6))
1^a: Febrile neutropenia ≥Grade 3, number of patients (monotherapy 10 mg/m^2 (n = 6))
disorders (7/7): Respiratory, thoracic, and mediastinal disorders ≥Grade 3, total events (all patients (N = 39)) | Respiratory, thoracic, and mediastinal disorders ≥Grade 3, total patients (all patients (N = 39))
